Reference: ChEMBL document CHEMBL1201862, “PubChem BioAssay data set” (2004)
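96-well plates; 48 h exposure; 5 concentrations. Endpoints by linear interpolation between flanking doses. Not reached: highest tested concentration assigned. At the GI50, growth is halved.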 The source made the active and inactive calls. No stated cut-off is given here; in the data, active = GI50 up to about 1.1 µM and inactive = higher.

Key:
Assay in all cases: NCI-60 cell line screen, 48 h
HOP-92 = test system: HOP-92
CAKI-1 = test system: CAKI-1
MDA-MB-435 = test system: MDA-MB-435
MDA-N = test system: MDA-N
Malme-3M = test system: Malme-3M
HT-29 = test system: HT-29
MDA-MB-231 = test system: MDA-MB-231
786-0 = test system: 786-0
CCRF-CEM = test system: CCRF-CEM
PC-3 = test system: PC-3
EKVX = test system: EKVX
OVCAR-8 = test system: OVCAR-8
M14 = test system: M14
SK-MEL-28 = test system: SK-MEL-28
SK-OV-3 = test system: SK-OV-3
SF-539 = test system: SF-539
RXF 393 = test system: RXF 393
HCT-15 = test system: HCT-15
COLO 205 = test system: COLO 205
SNB-19 = test system: SNB-19
SNB-75 = test system: SNB-75
OVCAR-3 = test system: OVCAR-3
SK-MEL-5 = test system: SK-MEL-5
ACHN = test system: ACHN
BT-549 = test system: BT-549
SF-295 = test system: SF-295
HCT-116 = test system: HCT-116
TK-10 = test system: TK-10
UACC-62 = test system: UACC-62
IGROV-1 = test system: IGROV-1
UACC-257 = test system: UACC-257
HOP-62 = test system: HOP-62
MOLT-4 = test system: MOLT-4
NCI-H460 = test system: NCI-H460
KM12 = test system: KM12
SN12C = test system: SN12C
MCF7 = test system: MCF7
SK-MEL-2 = test system: SK-MEL-2
U-251 = test system: U-251
NCI/ADR-RES = test system: NCI/ADR-RES
NCI-H23 = test system: NCI-H23
A549 = test system: A549
SF-268 = test system: SF-268
UO-31 = test system: UO-31
HCC 2998 = test system: HCC 2998
SR = test system: SR
RPMI-8226 = test system: RPMI-8226
OVCAR-5 = test system: OVCAR-5
T47D = test system: T47D
NCI-H522 = test system: NCI-H522
OVCAR-4 = test system: OVCAR-4
NCI-H226 = test system: NCI-H226
K562 = test system: K562
DU-145 = test system: DU-145
HL-60 = test system: HL-60
SW-620 = test system: SW-620
Hs-578T = test system: Hs-578T
LOX IMVI = test system: LOX IMVI

Question: With `COC(=O)C1=C(C)NC(C)=C(C(=O)OC)C1c1cccc(/[N+]([O-])=C/c2ccccc2)c1` as the molecule, how does the GI50 (HOP-92) read?
Answer: Its GI50 is 23.4 µM (inactive).

Question: What about the GI50 (CAKI-1) of the same molecule?
Answer: Its GI50 is 18.1 µM (inactive).

Question: What about the GI50 (MDA-MB-435) of the same molecule?
Answer: The GI50 was 19.7 µM (inactive).

Question: What about the GI50 (MDA-N) of the same molecule?
Answer: Its GI50 is 17.6 µM (inactive).

Question: And the GI50 (Malme-3M)?
Answer: The GI50 was 16.3 µM (inactive).

Question: And the GI50 (HT-29)?
Answer: Its GI50 is 28.3 µM (inactive).

Question: And the GI50 (MDA-MB-231)?
Answer: The GI50 was 17.5 µM (inactive).

Question: And the GI50 (786-0)?
Answer: The GI50 was 17.7 µM (inactive).

Question: What about the GI50 (CCRF-CEM) of the same molecule?
Answer: The GI50 was 11 µM (inactive).

Question: What about the GI50 (PC-3) of the same molecule?
Answer: The GI50 was 46.7 µM (inactive).

Question: What about the GI50 (EKVX) of the same molecule?
Answer: The GI50 was 72.8 µM (inactive).

Question: And the GI50 (OVCAR-8)?
Answer: Its GI50 is 17.5 µM (inactive).

Question: And the GI50 (M14)?
Answer: The GI50 was 18.6 µM (inactive).

Question: And the GI50 (SK-MEL-28)?
Answer: The GI50 was 17.5 µM (inactive).

Question: What about the GI50 (SK-OV-3) of the same molecule?
Answer: Its GI50 is > 100 µM (inactive).

Question: And the GI50 (SF-539)?
Answer: The GI50 was > 100 µM (inactive).

Question: What about the GI50 (RXF 393) of the same molecule?
Answer: Its GI50 is 16.4 µM (inactive).

Question: And the GI50 (HCT-15)?
Answer: The GI50 was 17.1 µM.

Question: And the GI50 (COLO 205)?
Answer: Its GI50 is 16.8 µM (inactive).

Question: What about the GI50 (SNB-19) of the same molecule?
Answer: The GI50 was > 100 µM (inactive).

Question: What about the GI50 (SNB-75) of the same molecule?
Answer: The GI50 was 41.7 µM (inactive).

Question: What about the GI50 (OVCAR-3) of the same molecule?
Answer: Its GI50 is 17.4 µM (inactive).

Question: What about the GI50 (SK-MEL-5) of the same molecule?
Answer: The GI50 was > 100 µM (inactive).

Question: And the GI50 (ACHN)?
Answer: The GI50 was 17.1 µM (inactive).

Question: And the GI50 (BT-549)?
Answer: Its GI50 is 16.3 µM (inactive).

Question: And the GI50 (SF-295)?
Answer: The GI50 was > 100 µM (inactive).

Question: And the GI50 (HCT-116)?
Answer: Its GI50 is 16.7 µM (inactive).

Question: And the GI50 (TK-10)?
Answer: The GI50 was 38.9 µM (inactive).

Question: And the GI50 (UACC-62)?
Answer: Its GI50 is 28.5 µM (inactive).

Question: What about the GI50 (IGROV-1) of the same molecule?
Answer: Its GI50 is 74.3 µM (inactive).

Question: What about the GI50 (UACC-257) of the same molecule?
Answer: Its GI50 is 19 µM (inactive).

Question: What about the GI50 (HOP-62) of the same molecule?
Answer: The GI50 was > 100 µM (inactive).

Question: What about the GI50 (MOLT-4) of the same molecule?
Answer: Its GI50 is 23.2 µM (inactive).

Question: And the GI50 (NCI-H460)?
Answer: The GI50 was 97.9 µM (inactive).

Question: And the GI50 (KM12)?
Answer: The GI50 was > 100 µM (inactive).

Question: And the GI50 (SN12C)?
Answer: Its GI50 is > 10 µM (inactive).

Question: And the GI50 (MCF7)?
Answer: Its GI50 is 17.8 µM (inactive).

Question: What about the GI50 (SK-MEL-2) of the same molecule?
Answer: The GI50 was 75 µM (inactive).

Question: And the GI50 (U-251)?
Answer: Its GI50 is > 100 µM (inactive).

Question: What about the GI50 (NCI/ADR-RES) of the same molecule?
Answer: Its GI50 is 23.2 µM (inactive).

Question: And the GI50 (NCI-H23)?
Answer: The GI50 was 33.3 µM (inactive).

Question: What about the GI50 (A549) of the same molecule?
Answer: The GI50 was > 100 µM (inactive).

Question: What about the GI50 (SF-268) of the same molecule?
Answer: The GI50 was 69.5 µM (inactive).

Question: What about the GI50 (UO-31) of the same molecule?
Answer: Its GI50 is 34.2 µM (inactive).

Question: What about the GI50 (HCC 2998) of the same molecule?
Answer: Its GI50 is > 100 µM (inactive).

Question: What about the GI50 (SR) of the same molecule?
Answer: The GI50 was 21.8 µM (inactive).

Question: And the GI50 (RPMI-8226)?
Answer: Its GI50 is 24.4 µM (inactive).

Question: And the GI50 (OVCAR-5)?
Answer: Its GI50 is > 100 µM (inactive).

Question: What about the GI50 (T47D) of the same molecule?
Answer: The GI50 was 17.3 µM (inactive).

Question: And the GI50 (NCI-H522)?
Answer: The GI50 was 16.4 µM (inactive).

Question: And the GI50 (OVCAR-4)?
Answer: Its GI50 is 16.5 µM (inactive).

Question: And the GI50 (NCI-H226)?
Answer: Its GI50 is > 100 µM (inactive).

Question: What about the GI50 (K562) of the same molecule?
Answer: Its GI50 is > 10 µM (inactive).

Question: And the GI50 (DU-145)?
Answer: The GI50 was 78 µM (inactive).

Question: And the GI50 (HL-60)?
Answer: The GI50 was 15.3 µM (inactive).

Question: And the GI50 (SW-620)?
Answer: Its GI50 is 21.3 µM (inactive).

Question: What about the GI50 (Hs-578T) of the same molecule?
Answer: Its GI50 is 42.1 µM (inactive).

Question: What about the GI50 (LOX IMVI) of the same molecule?
Answer: Its GI50 is 33.7 µM (inactive).

Question: Which results are given for `COc1cc(C[C@@]2(C)[C@@H]3CCC[C@H](CO)[C@@]3(C)CC[C@@H]2C)c(Cl)c(OC)c1`?
Answer: GI50 (HOP-92): 14.5 µM (inactive); GI50 (CAKI-1): 16.2 µM (inactive); GI50 (MDA-MB-435): 13.7 µM (inactive); GI50 (MDA-N): 15.5 µM (inactive); GI50 (Malme-3M): 16.2 µM (inactive); GI50 (HT-29): 13.3 µM (inactive); GI50 (MDA-MB-231): 16.4 µM (inactive); GI50 (786-0): 15.7 µM (inactive); GI50 (CCRF-CEM): 29.4 µM (inactive); GI50 (PC-3): 14.2 µM (inactive); GI50 (EKVX): 14.3 µM (inactive); GI50 (OVCAR-8): 16 µM (inactive); GI50 (M14): 18.3 µM (inactive); GI50 (SK-MEL-28): 26.2 µM (inactive); GI50 (SK-OV-3): 17.5 µM (inactive); GI50 (SF-539): 14.7 µM (inactive); GI50 (RXF 393): 11.6 µM (inactive); GI50 (HCT-15): 16.7 µM; GI50 (COLO 205): 15.3 µM (inactive); GI50 (SNB-19): 18.6 µM (inactive); GI50 (SNB-75): 18 µM (inactive); GI50 (OVCAR-3): 15.3 µM (inactive); GI50 (SK-MEL-5): 17 µM (inactive); GI50 (ACHN): 16 µM (inactive); GI50 (BT-549): 17.6 µM (inactive); GI50 (SF-295): 16.3 µM (inactive); GI50 (HCT-116): 12.2 µM (inactive); GI50 (TK-10): 19.5 µM (inactive); GI50 (UACC-62): 15.3 µM (inactive); GI50 (IGROV-1): 14.7 µM (inactive); GI50 (UACC-257): 18.7 µM (inactive); GI50 (HOP-62): 17.1 µM (inactive); GI50 (MOLT-4): 12.1 µM (inactive); GI50 (NCI-H460): 16.8 µM (inactive); GI50 (KM12): 18.2 µM (inactive); GI50 (SN12C): 15.8 µM (inactive); GI50 (MCF7): 15.5 µM (inactive); GI50 (SK-MEL-2): 16.8 µM (inactive); GI50 (U-251): 15.5 µM (inactive); GI50 (NCI/ADR-RES): 15.2 µM (inactive); GI50 (NCI-H23): 19.6 µM (inactive); GI50 (A549): 14.4 µM (inactive); GI50 (SF-268): 14.9 µM (inactive); GI50 (UO-31): 16.6 µM (inactive); GI50 (HCC 2998): 16.1 µM (inactive); GI50 (SR): 16 µM (inactive); GI50 (RPMI-8226): 20.2 µM (inactive); GI50 (OVCAR-5): 18.3 µM (inactive); GI50 (T47D): 9.53 µM (inactive); GI50 (NCI-H522): 14.7 µM (inactive); GI50 (OVCAR-4): 15.8 µM (inactive); GI50 (NCI-H226): 15.8 µM (inactive); GI50 (K562): 16.3 µM (inactive); GI50 (DU-145): 16.4 µM (inactive); GI50 (HL-60): 17.6 µM (inactive); GI50 (SW-620): 29.2 µM (inactive); GI50 (Hs-578T): 21.5 µM (inactive); GI50 (LOX IMVI): 17.8 µM (inactive)
